Experimental data as given in patent US20210156844A1, “TMEM16A Modulation for Diagnostic or Therapeutic Use in Pulmonary Hypertension (PH)” (Bayer Aktiengesellschaft, priority 2017, published 2021).

How the values were obtained:
[1] = system: patients with severe IPAH; experiment: Hemodynamic effect of a single oral dose of benzbromarone in IPAH patients; assay type: in vivo, human; details: 200 mg orally
Description: All patients provided a written informed consent to participate in the study. Examinations were performed by the same experienced team. For the right heart catheterizations, a 7F quadriple-lumen, balloon-tipped, flow-directed Swan-Ganz catheter (Baxter, Deerfield, Ill.) was introduced using the transjugular approach. Hemodynamic measurements included systolic, diastolic and mean pulmonary arterial pressure, pulmonary arterial wedge pressure, right atrial pressure, and cardiac output measured by the thermodilution technique and calculated using an analog computer system. Pulmonary vascular resistance was derived from the difference of mean pulmonary arterial pressure and pulmonary arterial wedge pressure divided by cardiac output. Cardiac index was determined as the ratio of cardiac output to body surface area. All measurements were performed in the supine position, pressure values were continuously recorded and averaged over several respiratory cycles during spontaneous breathing. […] Partial pressure of oxygen and oxygen saturation of arterialized ear lobe capillary blood and pulmonary arterial blood were determined with an ABL 800 Flex (Radiometer; Copenhagen, Denmark) blood gas analyzer. Systemic blood pressure was measured by a sphygmomanometer.

[2] = Solubility (comparative remark); assay type: physicochemical
[3] = system: monocrotaline treated rats; experiment: Monocrotaline treated rats, chronic treatment with slow-release pellets; assay type: in vivo, rat
Description: Male Sprague-Dawley rats (body weight: approx. 250 g, Charles River) received a single subcutaneous injection of monocrotaline (MCT, 60 mg/kg, n=16) or vehicle (control group, n=8). Since significant RVSP increase and PA muscularization had been detected as early as 12 days after the injection of MCT58, two weeks after monocrotaline treatment rats were randomly ordered into two groups. Subcutaneous slow-release pellets (Innovative Research of America) that contained either benzbromarone (MCT+BBR, n=8) or vehicle (MCT+Veh, n=8) were implanted. Four weeks after monocrotaline treatment all rats were subjected to echocardiography and in vivo hemodynamic measurements, thereafter they were sacrificed for organ collection.
Echocardiographic measurements were performed using a Vevo 770 High Resolution Imaging System with a 30 MHz RMV-707B scan head (VisualSonics, Toronto, Canada) as previously reported (Egemnazarov, B, et al., J. Am. Soc. Echocardiogr. (2015) 28, 828-843). Briefly, animals were mounted on a heated pad and kept under anaesthesia with isoflurane 0.8-1.2%. Chest hair was depilated and a layer of sonographic coupling gel was applied to the thorax. RV internal diameter (RVID) and free wall thickness (RVFW) from the left parasternal long axis view were measured in M-mode and 2-D modalities. RV outflow tract was visualized from the parasternal short axis view at the level of the aortic valve. From this view, pulse wave (PW) Doppler flow recordings of the pulmonary artery were obtained with the sample volume positioned at the tip of the pulmonary valve leaflets. Here, peak velocity, acceleration time (PAAT), and velocity-time integral (VTI) were measured. For every parameter, measurements were done for 4-5 cardiac cycles and results were averaged. Cardiac output was calculated as CO (mL/min)=(7.85×[RV outflow tract]2×pulmonary valve velocity-time integral×heart rate)/1,000. Cardiac index (CI) was obtained by normalizing cardiac output to body weight.
In rats, in vivo hemodynamic measurements were conducted as described above for the mice, with the exception that for the right ventricular and the systolic blood pressures, 2 F Millar Catheters (SPR-513 and SPR-320, respectively) were used.
At the end of the hemodynamic measurements, animals were exsanguinated and the heart and lungs were isolated. The right ventricle (RV) was dissected from the left ventricle+septum (LV+S) and both of them were weighed. Right ventricular hypertrophy was assessed by calculating the Fulton index, defined as RV weight/(LV+S weight).
Paraffin-embedded mouse and rat lung tissues were cut to 2 μm thin sections. Double immunohistochemical staining and quantification of the non-muscularized and muscularized arteries were made as previously described (Crnkovic, S, et al., Respir. Physiol. Neurobiol. (2011) 179, 342-345). Immunostained slides were scanned with an Olympus BX61VS microscope using the OlyVIA software (Olympus Austria GmbH, Vienna, Austria). Vessel remodeling in lung sections was quantified using semi-automated image analysis software (Visiopharm, Hoersholm, Denmark). Throughout the analysis, all samples were identified with number codes to blind the operator for the experimental group. The percentage of non-muscularized and muscularized pulmonary arteries, relative to the total number of pulmonary arteries, was calculated.
Serial sections from the same lungs were used to determine cell proliferation in the PA wall, as described by Zabini et al. (Zabini, D. et al., J. Cell. Mol. Med. (2015) 19, 1151-1161). Lung sections were labeled using a primary antibody against the proliferation marker PCNA (sc-7907, Santa Cruz). Immunostained slides were scanned with an Olympus BX61VS microscope equipped with the OlyVIA software (Olympus Austria GmbH, Vienna, Austria). Negative controls were performed with the omission of the primary antibody.

hypoxia-exposed mice = experiment: Chronic hypoxia-induced mouse model of PH, slow-release pellets; assay type: in vivo
From the text: The experimental protocol is depicted in FIG. 12A. Male C57BL/6J mice (Charles River) at the age of 10 weeks were either placed into a hypoxic chamber (FiO2=0.1, n=16) for 4 weeks, or kept at normoxic conditions (control group, FiO2=0.21, n=8). According to the reports of Fagan et al. (Fagan, K A, et al. Am. J. Physiol. Lung Cell. Mol. Physiol. (2004) 287, L656-664) and Tuscherer et al. (Tuchscherer, H A, et al., J. Biomech. (2007) 40, 993-1001), a significant increase in the right ventricular systolic pressure (RVSP) and PA muscularization can be observed already after 14 days of hypoxia exposure. Therefore, mice subjected to hypoxia were randomized into two groups at the end of the second week. Eight mice received a subcutaneous slow-release pellet containing benzbromarone (Innovative Research of America, Sarasota Fla., USA) (HOX+BBR) and the other 8 mice received pellets with vehicle (HOX+Veh). The pellets ensured a stable blood concentration of the drug/vehicle over the next two weeks. At the end of week 4, all mice were subjected to in vivo hemodynamic measurements, followed by sacrifice and organ collection.
In mice, in vivo hemodynamics was performed under constant inhalation of 2% isoflurane/oxygen, using the closed chest technique through a small incision on the submandibular area. Body temperature was monitored and maintained at 37±1° C. A limb-lead ECG was recorded and the heart rate was kept constant to avoid changes in the sympathetic tone during the experiment. The right ventricle (RV) was catheterized via the right jugular vein using a 1.4 F Millar catheter (SPR-671, Millar, Houston Tex., USA) and right ventricular systolic pressure (RVSP) was measured continuously. Another catheter was inserted into the left carotid artery to monitor systemic blood pressure. After recording of stable values, the experiment was either continued with the assessment of the acute hemodynamic effects of benzbromarone (described above), or mice were sacrificed immediately for organ collection. […]
At the end of the hemodynamic measurements, animals were exsanguinated and the heart and lungs were isolated. […] Right ventricular hypertrophy was assessed by calculating the Fulton index, defined as RV weight/(LV+S weight).
Paraffin-embedded mouse and rat lung tissues were cut to 2 μm thin sections. Double immunohistochemical staining and quantification of the non-muscularized and muscularized arteries were made as previously described (Crnkovic, S, et al., Respir. Physiol. Neurobiol. (2011) 179, 342-345). […] Vessel remodeling in lung sections was quantified using semi-automated image analysis software (Visiopharm, Hoersholm, Denmark). […] The percentage of non-muscularized and muscularized pulmonary arteries, relative to the total number of pulmonary arteries, was calculated. […]

[4] = after 120 min, 10 patients, no placebo group
[5] = compared to the MCT+Veh group, week 4
[6] = slow-release pellet from two weeks after MCT, echocardiography at week 4
[7] = subcutaneous slow-release pellet weeks 2-4 of 4 weeks hypoxia, vs HOX+Veh

## CCc1oc2ccccc2c1C(=O)c1cc(Br)c(O)c(Br)c1 [benzbromarone, (2-Ethyl-3-benzofuranyl)-(3,5-dibrom-4-hydroxyphenyl)ketone]
[1]
  further changes in the pulmonary or systemic hemodynamics: no further changes
[1]; [4]
  PVR: slight increase
  mPAP: slight increase
[1]; throughout the study
  clinical adverse effects: No clinical adverse effects
[2]
  solubility compared with T16Ainh-A01: better soluble
[3]; MCT treated rats, lung sections (not shown)
  PCNA positive nuclei in the medial layer of the PA: reduced number
[3]; MCT+BBR vs MCT+Veh
  number of fully muscularized arteries: markedly reduced
  number of non-muscularized arteries: increased
[3]; [5]
  RV hypertrophy (Fulton-index): significantly decreased
  RVSP: significantly decreased
[3]; [6]
  MCT-induced decrease in cardiac index (CI): completely reversed
  MCT-induced decrease in pulmonary artery acceleration time (PAAT): completely reversed
  MCT-induced increase in right ventricular free wall thickness (RVFW Thickness): completely reversed
hypoxia-exposed mice; hypoxic mice, lung sections (not shown)
  PCNA positive nuclei in the medial layer of the PA: reduced number
hypoxia-exposed mice; ratio of fully vs non-muscularised arteries compared to HOX+Veh
  hypoxia-induced muscularization of pulmonary arteries: reversed
hypoxia-exposed mice; [7]
  Fulton index: lowered
  RVSP: lowered
